The subject of one test is HSC-2. Put plainly: Cytotoxicity against human HSC2 cells by MTT assay. Type of test: functional, cell-based. On the technique in general: Tetrazolium assays rely on reduction of a dye to a coloured formazan, in cell work by metabolically active cells.
The subject of a further test is HL-60. Put plainly: Cytotoxicity against human HL60 cells by MTT assay. Type of test: functional, cell-based.

Broadly, the IC50 is the concentration needed to halve the response being measured. Low readings indicate greater potency in that assay, high ones weaker potency in that assay. Turning to `C[C@@H]1O[C@@H](O[C@H]2[C@H](O[C@H]3CC[C@@]4(C)C(=CC[C@H]5[C@@H]6C[C@@H]7O[C@@]8(OC[C@H](C)[C@@H](O)[C@@H]8O)[C@@H](C)[C@@H]7[C@@]6(C)CC[C@@H]54)C3)O[C@H](CO)[C@@H](O)[C@@H]2O)[C@H](O)[C@H](O)[C@H]1O`, the concentration for half-maximal inhibition (IC50) with HSC-2 and in the test with HL-60 was greater than 200 µM in each case.

With `C[C@H]1CO[C@@]2(O[C@H]3C[C@H]4[C@@H]5CC=C6C[C@@H](O[C@@H]7O[C@H](CO)[C@@H](O)[C@H](O)[C@H]7O[C@@H]7O[C@@H](C)[C@H](O)[C@@H](O)[C@H]7O)CC[C@]6(C)[C@H]5C[C@H](O)[C@]4(C)[C@@]3(O)[C@@H]2C)[C@@H](O)C1`, the half-inhibitory concentration (IC50) in the test on HSC-2 and in the test with HL-60 was greater than 200 µM in each case.

For the compound `C[C@H]1CO[C@@]2(O[C@H]3C[C@@]4(O)[C@@H]5CC=C6C[C@@H](O)CC[C@]6(C)[C@H]5CC[C@]4(C)[C@@]3(O)[C@@H]2C)[C@@H](O)C1`, the IC50 in the test on HSC-2 and in the test with HL-60 was greater than 200 µM each time.

`C[C@H]1CO[C@@]2(O[C@H]3C[C@@]4(O)[C@@H]5CC=C6C[C@@H](O[C@@H]7O[C@H](CO)[C@@H](O)[C@H](O)[C@H]7O[C@@H]7O[C@@H](C)[C@H](O)[C@@H](O)[C@H]7O)CC[C@]6(C)[C@H]5CC[C@]4(C)[C@@]3(O)[C@@H]2C)[C@@H](O)C1`: the IC50 in the test on HSC-2 and with HL-60 was greater than 200 µM in each case.

`C[C@H]1CO[C@@]2(O[C@H]3C[C@H]4[C@@H]5CC=C6C[C@@H](O)CC[C@]6(C)[C@H]5C[C@H](O)[C@]4(C)[C@@]3(O)[C@@H]2C)[C@@H](O)C1`: the IC50 with HSC-2 and in the test with HL-60 was greater than 200 µM in each case.

(Values after ChEMBL document CHEMBL1141760, “Polyhydroxylated spirostanol saponins from the tubers of Dioscorea polygonoides” (J Nat Prod, 2005).)
